The record followed here is US6348468B1, “Pyridazine compounds and compositions containing the same” (Kowa Co., Ltd., priority 1997, dated 2002).

For data set [1], the system named is Interleukin-1β (IL-1β) Production. The data set is described as follows: Inhibitory activity against interleukin-1β production (LPS-stimulated HL-60 cells, ELISA). The note with it: Homo sapiens, 72 h, lipopolysaccharide 10 μg/ml, culturing for 3 days. Format: cell-based. On the procedure:
HL-60 cells were cultured for 4 days until confluence on RPMI 1640 medium with 10% fetal bovine serum (FBS) added thereto. The HL-60 cells were centrifuged. The supernatant was discarded, and the cells were then suspended at 1×10^6 cells/ml on RPMI 1640 medium with 3% FBS, and lipopolysaccharide was added to give a final concentration of 10 μg/ml. The culture was inoculated at 1 ml/well to a 24-well plate. A test sample was added at 1 μl/well, followed by culturing for 3 days. Three days later, the amount of interleukin-1β in each of the cultures was measured by ELISA. Its IC50 value was determined by a comparison in yield with a control to which no test sample was added.

A further data set deals with IL-6 Production. The data set is described as follows: Inhibitory activity against IL-6 production (LPS-stimulated RAW 264.7 cells, ELISA). Format: cell-based. To be noted: Mus musculus, RAW264.7, lipopolysaccharide, culturing for 20 hours. On the procedure: RAW 264.7 cells, which had been cultured until confluence on DMEM culture with 10% fetal bovine serum (FBS) added thereto, were diluted to 1×10^6 cells/ml with the same medium, and were then inoculated at 100 μl/well to a 96-well plate. A test sample which had been diluted with the same medium and lipopolysaccharide of 4 μg/ml in concentration was added at 50 μl/well, respectively. Subsequent to culturing for 20 hours, the cultures were collected.
The amount of IL-6 in each of the thus-obtained cultures of RAW 264.7 cells was measured by ELISA, and 5 the inhibitory activity against IL-6 production was determined with reference to a standard curve of IL-6.

The test system of the next data set is TNF-α Production. Put plainly: Inhibitory activity against TNF-α production (LPS-stimulated RAW 264.7 cells, L-929 cytotoxicity readout). The note with it: Mus musculus, RAW264.7, lipopolysaccharide, culturing for 20 hours. Format: cell-based. On the procedure: RAW 264.7 cells were cultured until confluence on DMEM culture with 10% fetal bovine serum (FBS), and were diluted to 1×10^6 cells/ml with the same medium and then inoculated at 100 μl/well to a 96-well plate. To the cells, a test sample which had been diluted with the same medium and lipopolysaccharide of 4 μg/ml was added at 50 μl/well, respectively. Subsequent to culturing for 20 hours, the cultures were collected.
Making use of cytotoxicity to L-929 cell strain, a TNF-α sensitive cell strain, the amount of TNF-α in each of the cultures was measured as will be described next. Described specifically, L-929 cells which had been cultured on MEM medium with 10% FBS added thereto were diluted to 2×10^5 cells/ml with the same medium, and were then inoculated at 100 μl/well to a 96-well plate. Subsequent to overnight incubation, standard TNF-α solutions, or 100-fold, 200-fold and 500-fold dilute solutions of the above-described culture of RAW 264.7 cells were added at 50 μl/well, and actinomycin D (4 μg/ml) was also added at 50 μl/well, followed by further culturing for 20 hours. Twenty hours later, each well was washed with PBS, viable cells were stained with crystal violet, and the inhibitory activity against TNF-α production was determined with reference to a standard curve of TNF-α.

In a further data set the test system is dogs. The data set is described as follows: Maximum no-effect level, oral once a day for 2 weeks, dogs. Format: in vivo. To be noted: orally once a day for 2 weeks.
The test system of another data set is rats. Put plainly: Maximum no-effect level, oral once a day for 2 weeks, rats. Format: in vivo. To be noted: orally once a day for 2 weeks.
The test system of data set [2] is collagen-induced arthritis models of mice. The data set is described as follows: Therapeutic effects for arthritis in collagen-induced arthritis models of mice. To be noted: P.O.; for Percent inhibition to swelling: determined by quantitation of swelling; for Percent inhibition to arthritis development: determined depending on the existence or non-existence of swelling. Format: in vivo. The procedure:
In accordance with the disclosure of Nature 283, 666-668, 1980, therapeutic effects for arthritis were evaluated by using collagen-induced arthritis models of mice.

As for `COc1ccc(-c2cc(=O)n(CCCl)nc2-c2ccc(OC)cc2)cc1` [Comp. Comp'd 1], the half-inhibitory concentration (IC50) in data set [1] was found to be 29 µM; in the data set with IL-6 Production, 65 µM; in the data set on TNF-α Production, 10 µM.

Consider `COc1ccc(-c2cc(=O)n(CCO)nc2-c2ccc(OC)cc2)cc1` [Comp. Comp'd 2], for which the half-maximal inhibitory concentration (IC50) in data set [1] was 46 µM; in the data set on IL-6 Production, 44 µM; in the data set with TNF-α Production, 26 µM.

In turn, `COc1ccc(-c2cc(=O)n(Cc3cccnc3)nc2-c2ccc(OC)cc2)cc1` [Example 44, 5,6-bis(4-methoxyphenyl)-2-(3-pyridylmethyl)-2H-pyridazin-3-one] showed a melting point of 167.4 to 168.4 °C. The compound also came in with an IC50 in data set [1] of 0.43 µM.

Take `CSc1ccc(-c2nn(Cc3ccccc3)c(=O)cc2-c2ccc(Cl)cc2)cc1` [Example 51, 2-benzyl-5-(4-chlorophenyl)-6-[4-(methylthio)phenyl]-2H-pyridazin-3-one]: in the data set on dogs, the “Maximum no-effect level (dog)” value is listed as 30 mg/kg and the “toxicity at the dose level of Table 4 (in words)” value is “no toxicity was observed at all”. For the same compound, in the data set on rats, the “Maximum no-effect level (rat)” value came out at 100 mg/kg and the “toxicity at the dose level of Table 4 (in words)” value is recorded as “no toxicity was observed at all”. The same compound showed an IC50 in data set [1] of 0.29 µM. For the same compound, in data set [2] (1 mg/kg), the “Percent inhibition to swelling” value is 33.3% and the “Percent inhibition to arthritis development” value is listed as 40%. For the same compound, in data set [2] (3 mg/kg), the “Percent inhibition to swelling” value was 77.4% and the “Percent inhibition to arthritis development” value stood at 50%.

Regarding `CSc1ccc(-c2nn(Cc3cccnc3)c(=O)cc2-c2ccc(Cl)cc2)cc1` [Example 55, 5-(4-chlorophenyl)-6-[4-(methylthio)phenyl]-2-(3-pyridylmethyl)-2H-pyridazin-3-one], it took 0.25 µM to reach half-maximal inhibition in data set [1] (IC50).

For the compound `CSc1ccc(-c2nn(Cc3ccccc3)c(=O)cc2-c2ccc(F)cc2)cc1` [Example 61, 5-(4-fluorophenyl)-6-[4-(methylthio)phenyl]-2-benzyl-2H-pyridazin-3-one], the melting point lay within 140.6 to 140.7 °C. The compound also registered an IC50 in data set [1] of 0.21 µM.

The compound `CSc1ccc(-c2nn(Cc3ccc(Cl)cc3Cl)c(=O)cc2-c2ccc(F)cc2)cc1` [Example 65, 5-(4-fluorophenyl)-6-[4-(methylthio)phenyl]-2-(2,4-dichlorobenzyl)-2H-pyridazin-3-one] came in with a melting point of 139.3 to 139.5 °C. Also, it took 0.39 µM to reach half-maximal inhibition in data set [1] (IC50).

Consider `COc1ccc(-c2nn(Cc3ccc(Cl)cc3)c(=O)cc2-c2ccncc2)cc1` [Example 78, 2-(4-chlorobenzyl)-6-(4-methoxyphenyl)-5-(4-pyridyl)-2H-pyridazin-3-one], for which the IC50 in data set [1] was found to be 0.39 µM.

Compound `COc1ccc(-c2cc(=S)n(Cc3ccccc3)nc2-c2ccc(OC)cc2)cc1` [Example 123, 5,6-bis(4-methoxyphenyl)-2-benzyl-2H-pyridazine-3-thione] returned a melting point of 134.7 to 148.6 °C. In data set [1], this compound returned an IC50 of 0.19 µM.

The compound `COc1ccc(-c2cc(=S)n(Cc3ccc(F)cc3F)nc2-c2ccc(OC)cc2)cc1` [Example 126, 5,6-bis(4-methoxyphenyl)-2-(2,4-difluorobenzyl)-2H-pyridazine-3-thione] returned a half-inhibitory concentration (IC50) in data set [1] of 0.15 µM.

`COc1ccc(-c2cc(=S)n(Cc3cccnc3)nc2-c2ccc(OC)cc2)cc1` [Example 128, 5,6-bis(4-methoxyphenyl)-2-(3-pyridylmethyl)-2H-pyridazine-3-thione] displayed an IC50 in data set [1] of 0.31 µM.

In the case of `CSc1ccc(-c2nn(Cc3ccc(Cl)cc3Cl)c(=S)cc2-c2ccc(Cl)cc2)cc1` [Example 134, 5-(4-chlorophenyl)-2-(2,4-dichlorobenzyl)-6-[4-(methylthio)phenyl]-2H-pyridazine-3-thione], the melting point is 183.2 to 183.4 °C. Also, half-maximal inhibition in data set [1] (IC50) was put at 0.2 µM.

`CSc1ccc(-c2nn(Cc3cccnc3)c(=S)cc2-c2ccc(Cl)cc2)cc1` [Example 135, 5-(4-chlorophenyl)-6-[4-(methylthio)phenyl]-2-(3-pyridylmethyl)-2H-pyridazine-3-thione]: it took 0.39 µM to reach half-maximal inhibition in data set [1] (IC50).

In turn, `CSc1ccc(-c2nn(CC3CC3)c(=S)cc2-c2ccc(F)cc2)cc1` [Example 137, 2-cyclopropylmethyl-5-(4-fluorophenyl)-6-[4-(methylthio)phenyl]-2H-pyridazine-3-thione] gave a melting point of 135.7 to 135.8 °C. Further, inhibition in data set [1] was half-maximal at 0.27 µM (IC50).

In the case of `COc1ccc(-c2nn(Cc3ccc(Cl)cc3)c(=S)cc2-c2ccncc2)cc1` [Example 142, 2-(4-chlorobenzyl)-6-(4-methoxyphenyl)-5-(4-pyridyl)-2H-pyridazine-3-thione], the 50% inhibitory concentration (IC50) in data set [1] came to 0.18 µM.

`CCn1nc(-c2ccc(OC)c(F)c2)c(-c2ccc(OC)c(F)c2)cc1=O` [Example 160, 5,6-bis(3-fluoro-4-methoxyphenyl)-2-ethyl-2H-pyridazin-3-one] came in with a melting point of 177.8 to 178.5 °C. Besides, half-maximal inhibition in data set [1] (IC50) was put at 0.49 µM.

In the case of `CCn1nc(-c2ccc(OC)cc2)c(-c2ccc(OC)cc2)cc1=O` [Example 163, 5,6-bis(4-methoxyphenyl)-2-ethyl-2H-pyridazin-3-one], the half-maximal inhibitory concentration (IC50) in data set [1] turned out to be 0.61 µM; in the data set with IL-6 Production, 0.4 µM; in the data set with TNF-α Production it was 1.2 µM.

In data set [1], `COc1ccc(-c2cc(=O)n(C)nc2-c2ccc(OC)cc2)cc1` [Example 164, 5,6-bis(4-methoxyphenyl)-2-methyl-2H-pyridazin-3-one] gave an IC50 of 1.13 µM.

The compound `COc1ccc(-c2cc(=O)n(C(C)C)nc2-c2ccc(OC)cc2)cc1` [Example 165, 5,6-bis(4-methoxyphenyl)-2-isopropyl-2H-pyridazin-3-one] gave a 50% inhibitory concentration (IC50) in data set [1] of 1.32 µM.

Turning to `COc1ccc(-c2cc(=O)n(C3CC3)nc2-c2ccc(OC)cc2)cc1` [Example 168, 5,6-bis(4-methoxyphenyl)-2-cyclopropyl-2H-pyridazin-3-one], the concentration for half-maximal inhibition (IC50) in data set [1] is 7.98 µM.

For the compound `COc1ccc(-c2cc(=O)n(CC3CC3)nc2-c2ccc(OC)cc2)cc1` [Example 169, 5,6-bis(4-methoxyphenyl)-2-cyclopropylmethyl-2H-pyridazin-3-one], the IC50 in data set [1] is 1.8 µM.

`COc1ccc(-c2cc(=S)n(CC3CC3)nc2-c2ccc(OC)cc2)cc1` [Example 170, 5,6-bis(4-methoxyphenyl)-2-cyclopropylmethyl-2H-pyridazine-3-thione] displayed an IC50 in data set [1] of 1.19 µM.

For `COc1ccc(-c2cc(=O)n(C3CCCC3)nc2-c2ccc(OC)cc2)cc1` [Example 171, 5,6-bis(4-methoxyphenyl)-2-cyclopentyl-2H-pyridazin-3-one], the melting point lay in the range of 141.2 to 142.2 °C. Also, the half-maximal inhibitory concentration (IC50) in data set [1] came out at 0.51 µM.

`COc1ccc(-c2cc(=O)n(CC3CCCC3)nc2-c2ccc(OC)cc2)cc1` [Example 172, 5,6-bis(4-methoxyphenyl)-2-cyclopentylmethyl-2H-pyridazin-3-one] had an IC50 in data set [1] of 0.11 µM.
